The subject of series [1] is MDA-MB-231. In words: MTS cell proliferation assay. The conditions noted are these: Homo sapiens, 120 h; MDA-MB-231 (ER−), 5 days after treatment, estimated from graph FIG. 1; read-out: IC50 (50% Inhibitory Concentration). Type of series: cell-based. As for the experimental part:
(§1) The CellTiter 96 Aqueous MTS Reagent (Promega, Cat. G5421 WI) was employed to measure the effects of AF on cell proliferation. Briefly, cells in 100 μl were seeded in 96-well plates (Nunc) at a density of 2,000 cells/well and allowed to attach overnight. AF was added the following day in final concentrations of 0.1 nM to 100 μM in replicas of 8. Proliferation was measured 5 days later by adding 20 μl MTS reagent to the plates and incubation at 37° C. for 2 hours. Viable cells converted the MTS reagent to a formazan product, which was measured 4 hours later at 490 nm using a Synergy HT Multi-Detection Microplate Reader, and KC4 software (Bio-Tek). Cell proliferation was compared to DMSO treated controls as a percentage, against the background growth at the time of AF treatment.
(§2) For IC50 (50% Inhibiting Concentration) determination, vehicle treated cells were deemed as 100% cell growth. Percent growth inhibition was calculated by dividing AF treated MTS values by MTS values of vehicle treated cells, subtracting background (media alone without cells) from both prior to calculations. […] The data as calculated is more representative of percent cell survival and therefore defined as Inhibitory Concentrations (IC50) rather than GI50 values. That said, they provide for a highly accurate means for comparing effects of AF. IC50 values were estimated directly from the graph (FIG. 1), though model fitting employing BiodataFit 1.02 (Chang Biosciences, found on the world wide web at changbioscience.com/stat/ec50ht.html) provided for highly similar results with model fitting correlations of 0.85 or above and generally small SEE values (standard error of the IC50 estimate).

Series [2] relates to T47D. In words: MTS cell proliferation assay. Format: cell-based. The conditions noted are these: Homo sapiens, 120 h; T47D (ER+), 5 days after treatment, estimated from graph FIG. 1; read-out: IC50 (50% Inhibitory Concentration). As for the experimental part:
as §1, §2

Series [3] relates to Hs578t. In words: MTS cell proliferation assay. Type of series: cell-based. The conditions noted are these: Homo sapiens, Hs-578T, 120 h; Hs578t (ER−), 5 days after treatment, estimated from graph FIG. 1; read-out: IC50 (50% Inhibitory Concentration). The procedure:
as §1, §2

Series [4] deals with MCF7. As to the kind of experiment: MTS cell proliferation assay. Type of series: cell-based. The conditions noted are these: Homo sapiens, 120 h; MCF7 (ER+), 5 days after treatment, estimated from graph FIG. 1; read-out: IC50 (50% Inhibitory Concentration). As for the experimental part: as §1, §2
The test system of series [5] is MDA-MB-468. In words: MTS cell proliferation assay. Format: cell-based. The settings on record: Homo sapiens, 120 h; MDA-MB-468 (ER−), 5 days after treatment, estimated from graph FIG. 1; read-out: IC50 (50% Inhibitory Concentration). As for the experimental part: as §1, §2
Series [6] concerns PS2 and Cyp1A1 promoters in MCF7. In words: Chromatin Immunoprecipitation (ChIP), AhR and ER crosstalk. Format: cell-based, Human. The conditions noted are these: MCF7, 4 or 8 hours post-treatment with AF, FIG. 3. The source says:
(§3) Considering that the AhR and ER are both nuclear receptors and act as transcription factors, modulation of ER action after AhR activation by AF (“crosstalk”) was theorized to contribute to overall AF effects in ER+ cell lines. Therefore, Chromatin Immunoprecipitation (ChIP) was employed to study the potential crosstalk of AhR and ER after AF action at the PS2 promoter, a classical ER/estradiol inducible gene, and on Cyp1A1, a classical AF/AhR inducible gene known to be induced by AF. Transcription components studied were the AhR, ER, ARNT (the AhR transcriptional partner), RNA Polymerase II and CBP. CBP is a histone acetyl transferase associated with productive AhR induction of gene expression (Hestermann, E. V. and M. Brown, Mol Cell Biol, 23(21):7920-5 (2003)). In both T47D and MCF7 ER+ cell lines, all transcription components tested were present on the Estradiol inducible PS2 gene promotor, including the AhR. On the Cyp1A1 promotor, all the apparatus excluding CBP was present.
(§4) ChIP analysis was performed employing the Chromatin Immunoprecipitation (ChIP) Assay Kit (Millipore) as per company recommendations. […]
(§5) The resultant DNA was analyzed by PCR employing GoTaq Green Master Mix (Promega) using the following protocol: 94° C. for 2 minutes for initial melting, followed by 35 cycles at 94° C. for 30 seconds, 55° C. for 40 seconds, 72° C. […]

The subject of series [7] is PS2 and Cyp1A1 promoters in T47D. The series is described as above. Type of series: cell-based, Human. The conditions noted are these: 4 or 8 hours post-treatment with AF, FIG. 3.
From the text: as §3, §4, §5

Turning to `Cc1c(F)c(N)c2c(=O)cc(-c3ccc(N)c(F)c3)oc2c1F` [AF, 5-amino-2-(4-amino-3-fluorophenyl)-6,8-difluoro-7-methylchromen-4-one], the IC50 is 70000 nM in series [1]; 110 nM in series [2]; 20000 nM in series [3]; 70 nM in series [4]; 4 nM in series [5]. For the same compound, the “transcriptional adjustment at PS2 and Cyp1A1 promoters (ChIP)” value in series [6] is “dissociation of ER-related transcriptional control elements from the PS2 estrogenic promoter and their association with the Cyp1A1 promotor”; in series [7], “dissociation of ER-related transcriptional control elements from the PS2 estrogenic promoter and their association with the Cyp1A1 promotor”.
